Source: patent US11612606B2, “8-aminoisoquinoline compounds and uses thereof” (priority 2018, dated 2023)

Each molecule was assayed against HPK full length, T165E S171E (Homo sapiens (Human), UniProt Q92918, S171E/T165E) (assay: HPK1-FL HTRF enzymatic assay ("HTRF")). Conditions: ATP 1 mM, read-out: HPK1 Ki.
Format: biochemical
In short: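 HTRF detection of phosphorylated biotin-SLP-76 used Eu-anti-pSLP76 antibody and SA-XL665, read after 60 min. The kinase reaction ran 60 min at […], following a 30-min compound preincubation with the full-length enzyme.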

Sequence of HPK full length, T165E S171E (Q92918 whole entry T165E/S171E, looked up): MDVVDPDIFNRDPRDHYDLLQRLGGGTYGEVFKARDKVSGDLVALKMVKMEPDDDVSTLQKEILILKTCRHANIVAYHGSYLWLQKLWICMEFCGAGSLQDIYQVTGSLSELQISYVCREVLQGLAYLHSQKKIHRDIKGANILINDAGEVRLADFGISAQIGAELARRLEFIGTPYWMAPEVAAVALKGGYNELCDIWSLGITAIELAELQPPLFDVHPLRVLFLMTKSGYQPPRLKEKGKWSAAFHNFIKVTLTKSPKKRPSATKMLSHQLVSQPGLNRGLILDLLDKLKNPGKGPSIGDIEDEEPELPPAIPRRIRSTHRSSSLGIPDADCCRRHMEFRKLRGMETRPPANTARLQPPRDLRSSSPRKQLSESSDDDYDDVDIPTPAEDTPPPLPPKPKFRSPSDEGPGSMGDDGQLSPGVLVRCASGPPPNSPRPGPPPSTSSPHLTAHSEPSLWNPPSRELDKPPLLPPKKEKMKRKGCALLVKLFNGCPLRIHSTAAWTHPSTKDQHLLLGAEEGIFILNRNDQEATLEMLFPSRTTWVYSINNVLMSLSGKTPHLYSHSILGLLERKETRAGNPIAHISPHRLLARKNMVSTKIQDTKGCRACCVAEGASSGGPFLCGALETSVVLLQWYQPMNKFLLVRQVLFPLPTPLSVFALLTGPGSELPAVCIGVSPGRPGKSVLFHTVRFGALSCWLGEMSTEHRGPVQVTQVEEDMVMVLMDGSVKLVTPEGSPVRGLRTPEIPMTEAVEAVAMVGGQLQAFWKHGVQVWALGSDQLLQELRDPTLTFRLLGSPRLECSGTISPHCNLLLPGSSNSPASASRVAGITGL

| Structure (SMILES) | Ki |
| --- | --- |
| Cc1c(-c2cc3cc(NC(=O)O[C@H]4CC[C@H]4C)ncc3c(N)c2F)cnc2c1NCCO2 [Compound 559d, [(1S,2R)-2-methylcyclobutyl]N-[8-amino-7-fluoro-6-(8-methyl-2,3-dihydro-1H-pyrido[2,3-b][1,4]oxazin-7-yl)-3-isoquinolyl]carbamate] | < 0.013 nM |
| Cc1c(-c2cc3cc(NC(=O)OC4CC(O)C4)ncc3c(N)c2F)cnc2c1NC[C@H](C)C2 (stereo partly drawn) [Compound 560b, (1s,3s)-3-Hydroxycyclobutyl (8-amino-6-((R)-4,7-dimethyl-5,6,7,8-tetrahydro-1,5-naphthyridin-3-yl)-7-fluoroisoquinolin-3-yl)carbamate] | 0.32 nM |
| Cc1c(-c2cc3cc(NC(=O)O[C@@H]4CCOC4)ncc3c(N)c2F)cnc2c1C(C#N)CCO2 (stereo partly drawn) [Compound 562a, (R)-Tetrahydrofuran-3-yl (8-amino-6-(4-cyano-5-methyl-3,4-dihydro-2H-pyrano[2,3-b]pyridin-6-yl)-7-fluoroisoquinolin-3-yl)carbamate] | 0.068 nM |
| Cc1c(-c2cc3cc(NC(=O)O[C@@H]4CCN([C@H]5CCOC5)C[C@@H]4F)ncc3c(N)c2F)cnc2c1NCCO2 [Compound 569a, (3S,4R)-3-Fluoro-1-((S)-tetrahydrofuran-3-yl)piperidin-4-yl (8-amino-7-fluoro-6-(8-methyl-2,3-dihydro-1H-pyrido[2,3-b][1,4]oxazin-7-yl)isoquinolin-3-yl)carbamate] | 0.277 nM |
| Cc1c(-c2cc3cc(NC(=O)O[C@@H]4CCN([C@@H]5CCOC5)C[C@@H]4F)ncc3c(N)c2F)cnc2c1NCCO2 [Compound 569b, (3S,4R)-3-fluoro-1-((R)-tetrahydrofuran-3-yl)piperidin-4-yl (8-amino-7-fluoro-6-(8-methyl-2,3-dihydro-1H-pyrido[2,3-b][1,4]oxazin-7-yl)isoquinolin-3-yl)carbamate] | 0.254 nM |
| Cc1c(-c2cc3cc(NC(=O)O[C@H]4CCN([C@H]5CCOC5)C[C@H]4F)ncc3c(N)c2F)cnc2c1NCCO2 [Compound 569c, (3R,4S)-3-fluoro-1-((S)-tetrahydrofuran-3-yl)piperidin-4-yl (8-amino-7-fluoro-6-(8-methyl-2,3-dihydro-1H-pyrido[2,3-b][1,4]oxazin-7-yl)isoquinolin-3-yl)carbamate] | 0.029 nM |
| Cc1c(-c2cc3cc(NC(=O)O[C@H]4C[C@H](CO)C4)ncc3c(N)c2F)cnc2c1NCCO2 [Compound 571a, (1r,3r)-3-(Hydroxymethyl)cyclobutyl (8-amino-7-fluoro-6-(8-methyl-2,3-dihydro-1H-pyrido[2,3-b][1,4]oxazin-7-yl)isoquinolin-3-yl)carbamate] | 0.014 nM |
| Cc1c(-c2cc3cc(NC(=O)O[C@H]4C[C@@H](CO)C4)ncc3c(N)c2F)cnc2c1NCCO2 [Compound 571b, (1s,3s)-3-(Hydroxymethyl)cyclobutyl (8-amino-7-fluoro-6-(8-methyl-2,3-dihydro-1H-pyrido[2,3-b][1,4]oxazin-7-yl)isoquinolin-3-yl)carbamate] | < 0.013 nM |
| Cc1c(-c2cc3cc(NC(=O)O[C@H]4C[C@@H](S(C)(=O)=O)C4)ncc3c(N)c2F)cnc2c1NCCO2 [Compound 572a, (1s,3s)-3-(Methylsulfonyl)cyclobutyl (8-amino-7-fluoro-6-(8-methyl-2,3-dihydro-1H-pyrido[2,3-b][1,4]oxazin-7-yl)isoquinolin-3-yl)carbamate] | < 0.013 nM |
| Cc1c(-c2cc3cc(NC(=O)O[C@H]4C[C@@H](C(C)(C)O)C4)ncc3c(N)c2F)cnc2c1NCCO2 [Compound 574b, (1s,3s)-3-(2-hydroxypropan-2-yl)cyclobutyl (8-amino-7-fluoro-6-(8-methyl-2,3-dihydro-1H-pyrido[2,3-b][1,4]oxazin-7-yl)isoquinolin-3-yl)carbamate] | < 0.013 nM |
| Cc1c(-c2cc3cc(NC(=O)OC4C5COCC4CN(C4COC4)C5)ncc3c(N)c2F)cnc2c1NCCO2 [Compound 575a, (1R,5S,9s)-7-(Oxetan-3-yl)-3-oxa-7-azabicyclo[3.3.1]nonan-9-yl (8-amino-7-fluoro-6-(8-methyl-2,3-dihydro-1H-pyrido[2,3-b][1,4]oxazin-7-yl)isoquinolin-3-yl)carbamate] | < 0.013 nM |
| CO[C@H]1C[C@H](OC(=O)Nc2cc3cc(-c4cnc5c(c4C)NCCO5)c(F)c(N)c3cn2)C1 [Compound 576a, (1r, 3r)-3-Methoxycyclobutyl (8-amino-7-fluoro-6-(8-methyl-2,3-dihydro-1H-pyrido[2,3-b][1,4]oxazin-7-yl)isoquinolin-3-yl)carbamate] | < 0.013 nM |
| Cc1c(-c2cc3cc(NC(=O)O[C@H]4C[C@@H](C(F)F)C4)ncc3c(N)c2F)cnc2c1NCCO2 [Compound 577a, (1s,3s)-3-(difluoromethyl)cyclobutyl (8-amino-7-fluoro-6-(8-methyl-2,3-dihydro-1H-pyrido[2,3-b][1,4]oxazin-7-yl)isoquinolin-3-yl)carbamate] | 0.015 nM |
| Cc1c(-c2cc3cc(NC(=O)O[C@H]4C[C@H](C(F)F)C4)ncc3c(N)c2F)cnc2c1NCCO2 [Compound 577b, (1r,3r)-3-(difluoromethyl)cyclobutyl (8-amino-7-fluoro-6-(8-methyl-2,3-dihydro-1H-pyrido[2,3-b][1,4]oxazin-7-yl)isoquinolin-3-yl)carbamate] | < 0.013 nM |
| Cc1c(-c2cc3cc(NC(=O)OC4CCS(=O)(=O)CC4)ncc3c(N)c2F)cnc2c1NCCC2 [Compound 579, 1,1-Dioxidotetrahydro-2H-thiopyran-4-yl (8-amino-7-fluoro-6-(4-methyl-5,6,7,8-tetrahydro-1,5-naphthyridin-3-yl)isoquinolin-3-yl)carbamate] | 0.85 nM |
| Cc1c(-c2cc3cc(NC(=O)OC4CC5(CCNCC5)C4)ncc3c(N)c2F)cnc2c1NCCO2 [Compound 580, 7-Azaspiro[3.5]nonan-2-yl (8-amino-7-fluoro-6-(8-methyl-2,3-dihydro-1H-pyrido[2,3-b][1,4]oxazin-7-yl)isoquinolin-3-yl)carbamate] | < 0.013 nM |
| Cc1c(-c2cc3cc(NC(=O)SC4CCOCC4)ncc3c(N)c2F)cnc2c1NCCO2 [Compound 601, S-Tetrahydropyran-4-yl N-[8-amino-7-fluoro-6-(8-methyl-2,3-dihydro-1H-pyrido[2,3-b][1,4]oxazin-7-yl)-3-isoquinolyl]carbamothioate] | < 0.013 nM |
| Cc1c(-c2cc3cc(NC(=O)NC4CC4)ncc3c(N)c2F)cnc2c1NCCO2 [Compound 702, 1-(8-Amino-7-fluoro-6-(8-methyl-2,3-dihydro-1H-pyrido[2,3-b][1,4]oxazin-7-yl)isoquinolin-3-yl)-3-cyclopropylurea] | < 0.013 nM |
| CNC(=O)Nc1cc2cc(-c3cnc4c(c3C)NCCO4)c(F)c(N)c2cn1 [Compound 704, 1-(8-Amino-7-fluoro-6-(8-methyl-2,3-dihydro-1H-pyrido[2,3-b][1,4]oxazin-7-yl)isoquinolin-3-yl)-3-methylurea] | < 0.013 nM |
| CNC(=O)Nc1cc2cc(-c3cnc4c(c3C)NCCC4)c(F)c(N)c2cn1 [Compound 705, 1-[8-Amino-7-fluoro-6-(4-methyl-5,6,7,8-tetrahydro-1,5-naphthyridin-3-yl)-3-isoquinolyl]-3-methyl-urea] | 0.15 nM |
| Cc1c(-c2cc3cc(NC(=O)NC4CCCC4)ncc3c(N)c2F)cnc2c1NCCO2 [Compound 706, 1-(8-Amino-7-fluoro-6-(8-methyl-2,3-dihydro-1H-pyrido[2,3-b][1,4]oxazin-7-yl)isoquinolin-3-yl)-3-cyclopentylurea] | < 0.013 nM |
| Cc1c(-c2cc3cc(NC(=O)NC4CCC4)ncc3c(N)c2F)cnc2c1NCCO2 [Compound 707, 1-(8-Amino-7-fluoro-6-(8-methyl-2,3-dihydro-1H-pyrido[2,3-b][1,4]oxazin-7-yl)isoquinolin-3-yl)-3-cyclobutylurea] | < 0.013 nM |
| Cc1c(-c2cc3cc(NC(=O)NC4CC5(C4)CN(CC(F)(F)F)C5)ncc3c(N)c2F)cnc2c1NCCO2 [Compound 708, 1-(8-Amino-7-fluoro-6-(8-methyl-2,3-dihydro-1H-pyrido[2,3-b][1,4]oxazin-7-yl)isoquinolin-3-yl)-3-(2-(2,2,2-trifluoroethyl)-2-azaspiro[3.3]heptan-6-yl)urea] | < 0.013 nM |
| CC(=O)N1CC2(CC(NC(=O)Nc3cc4cc(-c5cnc6c(c5C)NCCO6)c(F)c(N)c4cn3)C2)C1 [Compound 709, 1-(2-Acetyl-2-azaspiro[3.3]heptan-6-yl)-3-(8-amino-7-fluoro-6-(8-methyl-2,3-dihydro-1H-pyrido[2,3-b][1,4]oxazin-7-yl)isoquinolin-3-yl)urea] | < 0.013 nM |
| Cc1c(-c2cc3cc(NC(=O)N[C@H]4[C@@H]5COC[C@@H]54)ncc3c(N)c2F)cnc2c1NCCO2 [Compound 713a, 1-(8-Amino-7-fluoro-6-(8-methyl-2,3-dihydro-1H-pyrido[2,3-b][1,4]oxazin-7-yl)isoquinolin-3-yl)-3-((1R,5S,6r)-3-oxabicyclo[3.1.0]hexan-6-yl)urea] | < 0.013 nM |
| Cc1c(-c2cc3cc(NC(=O)NC4CC(F)(F)C4)ncc3c(N)c2F)cnc2c1NCCO2 [Compound 714, 1-(8-Amino-7-fluoro-6-(8-methyl-2,3-dihydro-1H-pyrido[2,3-b][1,4]oxazin-7-yl)isoquinolin-3-yl)-3-(3,3-difluorocyclobutyl)urea] | < 0.013 nM |

Same assay, conditions: HPK1 Ki, ATP 1 mM

| Structure (SMILES) | Ki |
| --- | --- |
| Cc1c(-c2cc3cc(NC(=O)O[C@@H]4CO[C@H]5COC[C@H]54)ncc3c(N)c2F)cnc2c1NCCO2 [Compound 563a, (3S,3aR,6aR)-Hexahydrofuro[3,4-b]furan-3-yl (8-amino-7-fluoro-6-(8-methyl-2,3-dihydro-1H-pyrido[2,3-b][1,4]oxazin-7-yl)isoquinolin-3-yl)carbamate] | 0.219 nM |
| Cc1c(-c2cc3cc(NC(=O)O[C@H]4CCN([C@@H]5CCOC5)C[C@H]4F)ncc3c(N)c2F)cnc2c1NCCO2 [Compound 569d, (3R,4S)-3-fluoro-1-((R)-tetrahydrofuran-3-yl)piperidin-4-yl (8-amino-7-fluoro-6-(8-methyl-2,3-dihydro-1H-pyrido[2,3-b][1,4]oxazin-7-yl)isoquinolin-3-yl)carbamate] | 0.031 nM |
